# Data taken from article PMC12722308, “A phase 1 study of orally administered 5-fluoro-2’-deoxycytidine with tetrahydrouridine in patients with refractory solid tumors” (Cancer Chemotherapy and Pharmacology, 2025).
# Several values for one entry are separate records, joined by “and”; a condition that tells them apart may be missing. Identical values can stand only once. Like-named read-outs stand apart in the source and are kept apart here.
# What was measured:
# [1] = Phase 1 dose escalation: adverse events (CTCAE v4.0), DLT, MTD/RP2D; type: in vivo, human; conditions: orally once daily with 160 mg FdCyd on days 1–6 and 8–13 of each 21-day cycle (dose level 8)
# Experimental: FdCyd and THU were supplied by the NCI Division of Cancer Treatment and Diagnosis. Patients were administered both drugs orally in 21-day cycles, and dose escalation proceeded according to a traditional 3 + 3 design as per the dose escalation schema shown in Supplementary Table S1. […] Patients maintained a study diary to note any side effects or concurrent medications. The NCI Common Terminology Criteria for Adverse Events version 4.0 was used to grade adverse events. Tumor response was assessed by radiography at baseline and every 2 cycles thereafter and evaluated per RECIST version 1.1 [11]. Following determination of the maximum tolerated dose (MTD)/recommended phase 2 dose (RP2D), an additional 13 patients were enrolled on a RP2D expansion cohort for assessments of pharmacodynamic biomarkers in baseline and on-treatment tumor biopsies.
# DLTs were defined as toxicities that were at least possibly related to FdCyd or THU within the first cycle of treatment and met one of the following criteria: grade ≥ 3 non-hematological toxicity (including grade 3 nausea, vomiting, or diarrhea only if refractory to standard supportive care; grade 3 electrolyte toxicities only if unable to be corrected to ≤ grade 1 within 24 h; and tumor pain only if refractory to analgesics); grade 4 thrombocytopenia; or grade 4 neutropenia lasting ≥ 5 days or febrile neutropenia. […]
# [2] = cited from earlier work
# [3] = Plasma pharmacokinetics by LC-MS/MS; type: in vivo, human; conditions: for THU AUC0-6/Dose / THU Cl/F / THU Cmax/Dose / Tmax / Vd/F / half-life / AUC(0-inf) / Cmax / AUC(0-t) / concentration at 24 h / concentration at 48 h: geom. mean (geom. SD); for Tmax: read-out: THU Tmax; for Vd/F: read-out: THU Vz/F; for half-life: read-out: THU t½ (converted); for AUC(0-inf): read-out: THU AUC0-inf; for Cmax: read-out: THU Cmax; for AUC(0-t): read-out: THU AUC0-6; for concentration at 24 h: read-out: THU Cmin24h; for concentration at 48 h: read-out: THU Cmin48h
# Experimental: (§1) Blood specimens for PK analysis were collected on Cycle 1 Day 1 (C1D1) prior to THU administration and then at 15, 30, and 45 min and 1, 2, 3, 4, 5, and 6 h after THU administration, as well as on C1D2 and C1D3 prior to and 2 h after THU administration. Urine specimens for PK analysis were collected on C1D1 prior to treatment and then at every void from 0 to 24 h after THU administration. All specimens for PK analysis were processed and analyzed by LC-MS/MS as described previously, and Phoenix WinNonlin software was used for data analysis.
# [4] = Urinary excretion by LC-MS/MS; type: in vivo, human; conditions: geom. mean (geom. SD)
# Experimental: as §1
# [5] = tested on: leukemias and myelodysplastic syndromes; set-up: method as in PMID 23671007; conditions: specific indications of leukemias and myelodysplastic syndromes; cited from earlier work
# [6] = set-up: method as in PMID 21576646; conditions: oral administration, phase 1 study; cited from earlier work
# [7] = DL1-DL9: THU 3000 mg oral once daily (n=44)
# [8] = DL10-DL11: THU 6000 mg oral twice daily (n=11)
# [9] = human, plasma, oral, Total, all dose levels (n=55)
# [10] = human, plasma, po, 3000 mg, DL1-DL9: THU 3000 mg oral once daily (n=44)
# [11] = human, plasma, po, 6000 mg, DL10-DL11: THU 6000 mg oral twice daily (n=11)
# [12] = human, plasma, DL1-DL9: THU 3000 mg oral once daily (n=44)
# [13] = human, plasma, DL10-DL11: THU 6000 mg oral twice daily (n=11)
structure (smiles),measurement,setting,value
"O=C1NC(O)CCN1[C@@H]1O[C@H](CO)[C@@H](O)[C@H]1O (stereo partly drawn) [THU, tetrahydrouridine]","Maximum tolerated dose / RP2D, THU dose",[1],3000 mg
same,"THU bioavailability, previously established",[2],4.1%
same,"THU clearance, previous values","[2]; intravenous THU, ref previous clearance values",43 mL/min/m^2
same,THU exposure in patients who experienced a DLT vs those who did not,"[3]; AUC0−6 P = 0.007, Cmax P = 0.005, C24h P = 0.002, C48h P = 0.004",significantly higher THU exposures
same,THU AUC0-6/Dose,[3]; [7],2.25 (1.63) µg/L•h / mg
same,THU Cl/F,[3]; [7],142 L/h and 142 (1.8) L/h
same,THU Cmax/Dose,[3]; [7],505 (1.7) µg/L / g
same,THU AUC0-6/Dose,[3]; [8],1.79 (1.37) µg/L•h / mg
same,THU Cl/F,[3]; [8],190 (1.6) L/h
same,THU Cmax/Dose,[3]; [8],390 (1.4) µg/L / g
same,Increase in THU 24 and 48 h trough concentrations,"[3]; THU 6000 mg twice daily vs 3000 mg once daily, expected 4-fold",~10 fold
same,THU AUC0-6/Dose,"[3]; Total, all dose levels (n=55)",2.15 (1.60) µg/L•h / mg
same,THU Cl/F,"[3]; Total, all dose levels (n=55)",147 (1.7) L/h
same,THU Cmax/Dose,"[3]; Total, all dose levels (n=55)",480 (1.6) µg/L / g
same,THU plasma concentrations for the oral RP2D compared with the intravenous RP2D of 350 mg/m^2 THU,[3]; comparison with ref 8,9–13 % lower
same,Tmax,[3]; [9],~3 h
same,Vd/F,[3]; [9],1830 L
same,half-life,[3]; [9],8.7 h
same,bioavailability,"[3]; human, plasma, oral, from previous clearance (43 mL/min/m^2) vs current Cl/F (142 L/h), read-out: THU bioavailability in the current study",~3%
same,AUC(0-inf),[3]; [10],21100 ng·h/mL
same,Cmax,[3]; [10],1520 ng/mL
same,Tmax,[3]; [10],3 h
same,Vd/F,[3]; [10],1810 L
same,half-life,[3]; [10],8.8 h
same,AUC(0-inf),[3]; [11],31600 ng·h/mL
same,Cmax,[3]; [11],2340 ng/mL
same,Tmax,[3]; [11],3.2 h
same,Vd/F,[3]; [11],2040 L
same,half-life,"[3]; human, plasma, po, 6000 mg, DL10-DL11: THU 6000 mg oral twice daily, half-life determined for only 6 patients",7.4 h
same,AUC(0-t),[3]; [12],6750 ng·h/mL
same,concentration at 24 h,[3]; [12],260 ng/mL
same,concentration at 48 h,[3]; [12],330 ng/mL
same,AUC(0-t),[3]; [13],10800 ng·h/mL
same,concentration at 24 h,[3]; [13],2520 ng/mL
same,concentration at 48 h,[3]; [13],3170 ng/mL
same,THU urinary excretion over 0-24 hours of day 1,"[4]; All FdCyd doses + THU 3000 mg, N=42",2.1 (2.0) % dose
same,THU urinary excretion over 0-24 hours of day 1,"[4]; All FdCyd doses + THU 6000 mg, N=10",1.2 (2.5) % dose
same,THU urinary excretion over 0-24 hours of day 1,"[4]; DL1: FdCyd 30 mg + THU 3000 mg, N=3",2.9 (2.0) % dose
same,THU urinary excretion over 0-24 hours of day 1,"[4]; DL2: FdCyd 60 mg + THU 3000 mg, N=3",2.8 (1.6) % dose
same,THU urinary excretion over 0-24 hours of day 1,"[4]; DL3: FdCyd 90 mg + THU 3000 mg, N=3",2.1 (1.4) % dose
same,THU urinary excretion over 0-24 hours of day 1,"[4]; DL4: FdCyd 120 mg + THU 3000 mg, N=3",1.1 (4.8) % dose
same,THU urinary excretion over 0-24 hours of day 1,"[4]; DL5-9: FdCyd 160 mg + THU 3000 mg, N=30",2.1 (1.8) % dose
same,THU urinary excretion over 0-24 hours of day 1,"[4]; DL10: FdCyd 60 mg + THU 6000 mg, N=7",1.1 (2.9) % dose
same,THU urinary excretion over 0-24 hours of day 1,"[4]; DL11: FdCyd 80 mg + THU 6000 mg, N=3",1.6 (1.7) % dose
same,THU urinary excretion over 0-24 hours of day 1,"[4]; Total, all dose levels, N=52",1.9 (2.1) % dose
Nc1ncn([C@@H]2O[C@H](CO)[C@@H](O)[C@H]2O)c(=O)n1 [azacytidine],Response rates,[5],> 50%
same,Most common grade 3/4 toxicity and dose-limiting toxicity,[6],diarrhea
"Nc1ncn([C@H]2C[C@H](O)[C@@H](CO)O2)c(=O)n1 [decitabine, 5-aza-2’deoxycytidine]",Response rates,[5],> 50%
